Consider 16 compounds from PubChem BioAssay AID248 (DTP/NCI, 2004).

Structures are written as SMILES. Values joined by “and” are separate entries in the source; they are usually repeats but may differ in a detail not shown here. Equal values may be shown once. Inconclusive results and toxic doses are left out.

In this test the test system is L1210 leukemia ip in BDF1 mice, survival T/C. The experiment in a line: NCI In Vivo Anticancer Drug Screen. Data for tumor model L1210 Leukemia (intraperitoneal) in B6D2F1 (BDF1) mice. The conditions noted are these: endpoint: mean survival time, higher = longer survival. In short, it runs like this: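 Mice bearing the transplanted tumor received compound or vehicle. Survival of the treated group was divided by that of the vehicle-treated control group to give the ratio.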

[1] abbreviates: dose: 100.0 mg/kg/injection, schedule: Q01DX009 (ip), vehicle: Klucel (hydroxypropylcellulose) (HPC).
Setting [2] is: dose: 200.0 mg/kg/injection, schedule: Q01DX009 (ip), vehicle: Klucel (hydroxypropylcellulose) (HPC).
[3] abbreviates: dose: 100.0 mg/kg/injection, schedule: Q04DX003 (ip), vehicle: Klucel (hydroxypropylcellulose) (HPC).
The mark [4] stands for this setting: dose: 200.0 mg/kg/injection, schedule: Q04DX003 (ip), vehicle: Klucel (hydroxypropylcellulose) (HPC).
The mark [5] stands for this setting: dose: 100.0 mg/kg/injection, schedule: Q04DX003 (ip), vehicle: saline.
Setting [6] is: dose: 100.0 mg/kg/injection, schedule: Q01DX001 (ip), vehicle: acetone.
The mark [7] stands for this setting: dose: 200.0 mg/kg/injection, schedule: Q01DX001 (ip), vehicle: acetone.
[8] abbreviates: dose: 400.0 mg/kg/injection, schedule: Q01DX001 (ip), vehicle: acetone.

Turning to `CCN(CC)c1ccc(NC(=S)Nc2cccc(C(F)(F)F)c2)c(C)c1`, the T/C was 93 % of control under setting [1] and 90 % of control under setting [2].
Turning to `C1OCC2CCC(CC2)CO1`, the T/C is, setting by setting: (dose: 50.0 mg/kg/injection, schedule: Q01DX009 (ip), vehicle: saline) 95 % of control; (dose: 100.0 mg/kg/injection, schedule: Q01DX009 (ip), vehicle: saline) 98 % of control; (dose: 200.0 mg/kg/injection, schedule: Q01DX009 (ip), vehicle: saline) 97 % of control.
In the case of `O=C(NCCN1CC1)C(=O)NCCN1CC1`, the T/C is, setting by setting: (dose: 1.7 mg/kg/injection, schedule: Q04DX003 (ip), vehicle: Klucel (hydroxypropylcellulose) (HPC)) 173 % of control; (dose: 2.6 mg/kg/injection, schedule: Q04DX003 (ip), vehicle: Klucel (hydroxypropylcellulose) (HPC)) 153 % of control and 186 % of control; (dose: 3.12 mg/kg/injection, schedule: Q04DX003 (ip), vehicle: Klucel (hydroxypropylcellulose) (HPC)) 187 % of control; (dose: 3.12 mg/kg/injection, schedule: Q04DX003 (ip), vehicle: saline with Tween-80) 179 % of control; (dose: 4.0 mg/kg/injection, schedule: Q04DX003 (ip), vehicle: Klucel (hydroxypropylcellulose) (HPC)) 207 % of control; (dose: 6.0 mg/kg/injection, schedule: Q04DX003 (ip), vehicle: Klucel (hydroxypropylcellulose) (HPC)) 95 % of control. The T/C runs as follows: (dose: 6.25 mg/kg/injection, schedule: Q04DX003 (ip), vehicle: Klucel (hydroxypropylcellulose) (HPC)) 258 % of control; (dose: 12.5 mg/kg/injection, schedule: Q04DX003 (ip), vehicle: Klucel (hydroxypropylcellulose) (HPC)) 122 % of control.
On to `Cc1ccc(Nc2ccc([N+](=O)[O-])cc2[N+](=O)[O-])cc1C`, for which the T/C was 102 % of control (dose: 50.0 mg/kg/injection, schedule: Q04DX003 (ip), vehicle: Klucel (hydroxypropylcellulose) (HPC)); 108 % of control under setting [1]; 102 % of control under setting [3]; 90 % of control under setting [2]; 98 % of control and 104 % of control under setting [4]; 97 % of control (dose: 400.0 mg/kg/injection, schedule: Q01DX009 (ip), vehicle: Klucel (hydroxypropylcellulose) (HPC)). Also, where the note is “dose: 400.0 mg/kg/injection, schedule: Q04DX003 (ip), vehicle: Klucel (hydroxypropylcellulose) (HPC)”, the T/C is 89 % of control.
In the case of `Cc1ccc(Nc2nnc(N=Nc3ccccc3)s2)cc1C`, the T/C (dose: 100.0 mg/kg/injection, schedule: Q01DX009 (ip), vehicle: other) is 101 % of control; the T/C (dose: 200.0 mg/kg/injection, schedule: Q01DX009 (ip), vehicle: other) was 98 % of control; the T/C (dose: 400.0 mg/kg/injection, schedule: Q01DX009 (ip), vehicle: other) is 98 % of control.
With `CCCCC[N+](C)(C)CCOC(=O)C1C2CC3OC(=O)C1C3C2` (centres undefined), under setting [5], the T/C is 95 % of control.
Turning to `O=[N+]([O-])c1cc(S(=O)(=O)F)cc(Cl)c1S`, the T/C was 98 % of control under setting [3] and 102 % of control under setting [4].
For the compound `Cc1ccc(C(=O)CCCC(=O)c2ccc(C)cc2)cc1`, the T/C by setting is: (dose: 50.0 mg/kg/injection, schedule: Q01DX001 (ip), vehicle: other) 103 % of control; (dose: 100.0 mg/kg/injection, schedule: Q01DX001 (ip), vehicle: other) 91 % of control; (dose: 200.0 mg/kg/injection, schedule: Q01DX001 (ip), vehicle: other) 97 % of control; (dose: 400.0 mg/kg/injection, schedule: Q01DX001 (ip), vehicle: other) 95 % of control.
In the case of `Oc1ccccc1C=Nc1cccc2c(N=Cc3ccccc3O)cccc12`, the T/C is, setting by setting: (dose: 50.0 mg/kg/injection, schedule: Q04DX003 (ip), vehicle: other) 89 % of control; (dose: 100.0 mg/kg/injection, schedule: Q01DX001 (ip), vehicle: saline) 86 % of control; (dose: 100.0 mg/kg/injection, schedule: Q04DX003 (ip), vehicle: other) 86 % of control; (dose: 200.0 mg/kg/injection, schedule: Q01DX001 (ip), vehicle: saline) 88 % of control; (dose: 200.0 mg/kg/injection, schedule: Q04DX003 (ip), vehicle: other) 86 % of control; (dose: 400.0 mg/kg/injection, schedule: Q01DX001 (ip), vehicle: saline) 86 % of control.
`C1=CCC2OC2C1` (centres undefined): the T/C runs as follows: under setting [6], 103 % of control; under setting [1], 105 % of control; under setting [7], 95 % of control; under setting [2], 103 % of control; under setting [8], 94 % of control.
As to `O=S(=O)(/C=C/c1ccccc1)c1ccc2ccccc2c1`, the T/C runs as follows: under setting [6], 97 % of control; (dose: 100.0 mg/kg/injection, schedule: Q01DX009 (ip), vehicle: acetone) 92 % of control; (dose: 100.0 mg/kg/injection, schedule: Q04DX003 (ip), vehicle: acetone) 102 % of control; under setting [7], 93 % of control; (dose: 200.0 mg/kg/injection, schedule: Q01DX009 (ip), vehicle: acetone) 92 % of control; (dose: 200.0 mg/kg/injection, schedule: Q04DX003 (ip), vehicle: acetone) 105 % of control. Further, the T/C under setting [8] was 90 % of control; the T/C (dose: 400.0 mg/kg/injection, schedule: Q01DX009 (ip), vehicle: acetone) is 94 % of control; the T/C (dose: 400.0 mg/kg/injection, schedule: Q04DX003 (ip), vehicle: acetone) is 102 % of control.
As to `CCOc1ccc(NC(=O)Oc2cc(C)c(Cl)cc2C(C)C)cc1`, the T/C is 90 % of control (dose: 100.0 mg/kg/injection, schedule: Q04DX002 (ip), vehicle: Klucel (hydroxypropylcellulose) (HPC)); 110 % of control (dose: 200.0 mg/kg/injection, schedule: Q04DX002 (ip), vehicle: Klucel (hydroxypropylcellulose) (HPC)); 100 % of control (dose: 400.0 mg/kg/injection, schedule: Q04DX002 (ip), vehicle: Klucel (hydroxypropylcellulose) (HPC)).
As to `CCCCCCCCCCCC(=O)Nc1ccc(C(C)C)cc1`, the T/C was 102 % of control (dose: 100.0 mg/kg/injection, schedule: Q01DX001 (ip), vehicle: saline with Tween-80); 87 % of control (dose: 200.0 mg/kg/injection, schedule: Q01DX001 (ip), vehicle: saline with Tween-80); 92 % of control (dose: 400.0 mg/kg/injection, schedule: Q01DX001 (ip), vehicle: saline with Tween-80).
`CN(C)CCC(CNC1=NCCN1)c1cccc2ccccc12` (centres undefined): the T/C runs as follows: (dose: 25.0 mg/kg/injection, schedule: Q04DX002 (ip), vehicle: saline with Tween-80) 108 % of control; (dose: 50.0 mg/kg/injection, schedule: Q04DX002 (ip), vehicle: saline with Tween-80) 101 % of control; (dose: 100.0 mg/kg/injection, schedule: Q04DX002 (ip), vehicle: saline with Tween-80) 101 % of control.
As to `CCCCCCCCP(=O)(N1CC1)N1CC1`, the T/C reads like this: (dose: 5.0 mg/kg/injection, schedule: Q01DX Z (ip), vehicle: carboxymethylcellulose (CMC)) 107 % of control; (dose: 6.25 mg/kg/injection, schedule: Q01DX Z (ip), vehicle: carboxymethylcellulose (CMC)) 98 % of control; (dose: 10.0 mg/kg/injection, schedule: Q01DX Z (ip), vehicle: carboxymethylcellulose (CMC)) 102 % of control; (dose: 12.5 mg/kg/injection, schedule: Q01DX Z (ip), vehicle: carboxymethylcellulose (CMC)) 110 % of control; (dose: 20.0 mg/kg/injection, schedule: Q01DX Z (ip), vehicle: carboxymethylcellulose (CMC)) 110 % of control; (dose: 25.0 mg/kg/injection, schedule: Q01DX Z (ip), vehicle: carboxymethylcellulose (CMC)) 113 % of control. Further, the T/C reads like this: (dose: 40.0 mg/kg/injection, schedule: Q01DX Z (ip), vehicle: carboxymethylcellulose (CMC)) 117 % of control; (dose: 50.0 mg/kg/injection, schedule: Q01DX Z (ip), vehicle: carboxymethylcellulose (CMC)) 120 % of control.
`CC1(C)N=C(N)N=C(N)N1c1ccc(CN)cc1`: the T/C under setting [5] is 109 % of control and the T/C (dose: 200.0 mg/kg/injection, schedule: Q04DX003 (ip), vehicle: saline) was 101 % of control.
